The source of these data is patent US20220016241A1, “COMPOSITIONS AND METHODS FOR REDUCING ANTIGEN-SPECIFIC IMMUNOGENICITY” (The Research Foundation for The State University of New York, priority 2013, published 2022).

The target in one data set is T1, FVIII (Homo sapiens, UniProt P00451).
T1 construct: Full length recombinant human FVIII (Baxter Biosciences, Carlsbad, Calif.) was obtained as a gift; purchased Baxter Biosciences (gift from the Western New York Hemophilia Foundation)
As to the kind of experiment: Binding of OPLS to FVIII by fluorescence spectroscopy. How it is done: The binding of OPLS to several therapeutic proteins was evaluated using fluorescence spectroscopy (FIG. 2).

The test system of the next data set is anti-GAA total titers. As to the kind of experiment: OPLS-GAA sequential administration study. The following applies: for Total titers (ELISA), week 11 after re-challenge: rechallenge 4 weekly 1 μg rhGAA; for Total titers (ELISA), week 6: 4 weekly sc. In kind it is in vivo, Mice. How it is done:
This examples describes OPLS-GAA sequential administration study. To determine if OPLS can exert its immunomodulatory effects on the immune response to GAA when the two are administered in separate spaced injections, at the same injection site the following experiments were carried out. Mice (n=6 animals/group) were immunized with 4 weekly sc injections as follows. One group of animals received one single combined injection of 5 mg OPLS and 1 μg rhGAA(100 μl volume). Recombinant human GAA was produced by Creative Biomart. The second group received one injection of 5 mg OPLS (100 μl volume) then after a 5 minute wait they received a second injection of 1 μg rhGAA in sterile TRIS (100 μl volume) in the same injection site. The final control group received one injection of sterile TRIS (100 μl volume) then after a 5 minute wait they received a second injection of 1 μg rhGAA in sterile TRIS (100 μl volume) in the same injection site. After a two week rest period a saphenous blood sample was collected. All of the mice were then rechallenged with 4 weekly injections of 1 μg of rhGAA in 100 μl sterile TRIS (one single injection). Analysis was done by ELISA for total titers. The mean free GAA after 6 weeks was 3135±910, When co-administered, the GAA was 787±155, and when administered separately (sequentially), the GAA was 926±202 (FIG. 26). After re-challenge, terminal sampling was done at week 11. The mean free GAA after 11 weeks was 8775±2363, When co-administered, the GAA was 895±335, and when administered separately (sequentially), the GAA was 1884±761. […] Either administration method was able to induce a hypo-responsiveness towards GAA.

Another data set deals with anti-RXT antibody titers. As to the kind of experiment: Effect of OPLS on rituximab immunogenicity. In kind it is in vivo, SW mice. The settings on record: OPLS 5 mg vs 0.4 mg with 1 μg RXT s.c., dose dependent. As to the method:
Materials and Methods: 30 SW mice between 6 and 8 weeks of age were divided into 3 groups: group one received 1 ug RXT SC in the abdominal region. Group two received 1 ug RXT/0.4 mg OPLS SC in the abdominal region and group 3 received 1 μg RXT/5 mg OPLS sc in the abdominal region. This treatment was given one day 1, 8, 10 and 12. Three days after the last injection the animals were sacrificed. Blood was centrifuged at 7500 rpm for 5 min at 4 degrees Celsius. Plasma was then removed and stored at −80 degrees Celsius until analysis Total titers were determined by classical standard ELISA. Briefly, Nunc-Maxisorb 96-well plates were coated overnight at 4° C. with 50 μl/well of 2.5 μg/ml RXT. Plates were then washed and blocked with 1% bovine serum albumin (blocking buffer). 50 μl/well of various dilutions of the sample were added to the plate and incubated at room temperature for 2 h. Plasma samples from animals exposes to a sham treatment (buffer only) served as controls. The plates were then washed and incubated with 50 μl of goat anti-mouse FC-specific anti-body-HRP conjugate at a 1:50000 dilution in blocking buffer at room temperature for 1 h. Color was developed for 20 min with 100 μl of TMB solution. 100 μl of 2 N H2SO4 was used to stop the reaction. Optical density at […] was measured using a plate reader. Non-responders were given the value of the plate specific factor for uniformity. […]

Another data set concerns anti-KLH IgG titer. Kind of data set: 28-day repeat dose TDAR study, anti-KLH IgG. The following applies: 28 daily doses, any OPLS dose. Type of data set: in vivo, CD-1 mice. The text has this:
FIG. 20. Anti-KLH IgG titer levels obtained from a short term, repeat dose (28 daily doses) TDAR study conducted in CD-1 mice.

The subject of the next data set is anti-FVIII total titers. Kind of data set: OPLS-FVIII sequential administration study. Type of data set: in vivo, Hemophilia A mice. The following applies: 5 mg OPLS then 1 μg FVIII 5 minutes later, same site, 4 weekly sc; 4 weekly iv rechallenge. As to the method:
To determine if OPLS can exert its immunomodulatory effects on the immune response to FVIII when the two are administered in separate injections temporally spaced apart, at the same injection site the following experiments were carried out. Hemophilia A mice (n=6 animals/group) were immunized with 4 weekly sc injections as follows. The control group of animals received one injection of sterile TRIS buffer (100 μL volume) then, after a 5 minute wait, they received a second injection of 1 μg FVIII in sterile TRIS (100 μL volume) at the same injection site. The second group of mice received one injection of 5 mg OPLS (100 μL volume) then, after a 5 minute wait, they received a second injection of 1 μg FVIII in sterile TRIS (100 μL volume) at the same injection site. After a two-week rest period (week 6) all of the mice were then rechallenged with 4 weekly intravenous injections of 1 μg of FVIII in 100 μL sterile TRIS […]. Mice were sacrificed after two weeks and a terminal blood sample was collected using cardiac puncture. Analysis was done by ELISA for total titers. […] This administration method was able to induce a hypo-responsiveness towards FVIII.

T1 sequence (P00451 20-2351): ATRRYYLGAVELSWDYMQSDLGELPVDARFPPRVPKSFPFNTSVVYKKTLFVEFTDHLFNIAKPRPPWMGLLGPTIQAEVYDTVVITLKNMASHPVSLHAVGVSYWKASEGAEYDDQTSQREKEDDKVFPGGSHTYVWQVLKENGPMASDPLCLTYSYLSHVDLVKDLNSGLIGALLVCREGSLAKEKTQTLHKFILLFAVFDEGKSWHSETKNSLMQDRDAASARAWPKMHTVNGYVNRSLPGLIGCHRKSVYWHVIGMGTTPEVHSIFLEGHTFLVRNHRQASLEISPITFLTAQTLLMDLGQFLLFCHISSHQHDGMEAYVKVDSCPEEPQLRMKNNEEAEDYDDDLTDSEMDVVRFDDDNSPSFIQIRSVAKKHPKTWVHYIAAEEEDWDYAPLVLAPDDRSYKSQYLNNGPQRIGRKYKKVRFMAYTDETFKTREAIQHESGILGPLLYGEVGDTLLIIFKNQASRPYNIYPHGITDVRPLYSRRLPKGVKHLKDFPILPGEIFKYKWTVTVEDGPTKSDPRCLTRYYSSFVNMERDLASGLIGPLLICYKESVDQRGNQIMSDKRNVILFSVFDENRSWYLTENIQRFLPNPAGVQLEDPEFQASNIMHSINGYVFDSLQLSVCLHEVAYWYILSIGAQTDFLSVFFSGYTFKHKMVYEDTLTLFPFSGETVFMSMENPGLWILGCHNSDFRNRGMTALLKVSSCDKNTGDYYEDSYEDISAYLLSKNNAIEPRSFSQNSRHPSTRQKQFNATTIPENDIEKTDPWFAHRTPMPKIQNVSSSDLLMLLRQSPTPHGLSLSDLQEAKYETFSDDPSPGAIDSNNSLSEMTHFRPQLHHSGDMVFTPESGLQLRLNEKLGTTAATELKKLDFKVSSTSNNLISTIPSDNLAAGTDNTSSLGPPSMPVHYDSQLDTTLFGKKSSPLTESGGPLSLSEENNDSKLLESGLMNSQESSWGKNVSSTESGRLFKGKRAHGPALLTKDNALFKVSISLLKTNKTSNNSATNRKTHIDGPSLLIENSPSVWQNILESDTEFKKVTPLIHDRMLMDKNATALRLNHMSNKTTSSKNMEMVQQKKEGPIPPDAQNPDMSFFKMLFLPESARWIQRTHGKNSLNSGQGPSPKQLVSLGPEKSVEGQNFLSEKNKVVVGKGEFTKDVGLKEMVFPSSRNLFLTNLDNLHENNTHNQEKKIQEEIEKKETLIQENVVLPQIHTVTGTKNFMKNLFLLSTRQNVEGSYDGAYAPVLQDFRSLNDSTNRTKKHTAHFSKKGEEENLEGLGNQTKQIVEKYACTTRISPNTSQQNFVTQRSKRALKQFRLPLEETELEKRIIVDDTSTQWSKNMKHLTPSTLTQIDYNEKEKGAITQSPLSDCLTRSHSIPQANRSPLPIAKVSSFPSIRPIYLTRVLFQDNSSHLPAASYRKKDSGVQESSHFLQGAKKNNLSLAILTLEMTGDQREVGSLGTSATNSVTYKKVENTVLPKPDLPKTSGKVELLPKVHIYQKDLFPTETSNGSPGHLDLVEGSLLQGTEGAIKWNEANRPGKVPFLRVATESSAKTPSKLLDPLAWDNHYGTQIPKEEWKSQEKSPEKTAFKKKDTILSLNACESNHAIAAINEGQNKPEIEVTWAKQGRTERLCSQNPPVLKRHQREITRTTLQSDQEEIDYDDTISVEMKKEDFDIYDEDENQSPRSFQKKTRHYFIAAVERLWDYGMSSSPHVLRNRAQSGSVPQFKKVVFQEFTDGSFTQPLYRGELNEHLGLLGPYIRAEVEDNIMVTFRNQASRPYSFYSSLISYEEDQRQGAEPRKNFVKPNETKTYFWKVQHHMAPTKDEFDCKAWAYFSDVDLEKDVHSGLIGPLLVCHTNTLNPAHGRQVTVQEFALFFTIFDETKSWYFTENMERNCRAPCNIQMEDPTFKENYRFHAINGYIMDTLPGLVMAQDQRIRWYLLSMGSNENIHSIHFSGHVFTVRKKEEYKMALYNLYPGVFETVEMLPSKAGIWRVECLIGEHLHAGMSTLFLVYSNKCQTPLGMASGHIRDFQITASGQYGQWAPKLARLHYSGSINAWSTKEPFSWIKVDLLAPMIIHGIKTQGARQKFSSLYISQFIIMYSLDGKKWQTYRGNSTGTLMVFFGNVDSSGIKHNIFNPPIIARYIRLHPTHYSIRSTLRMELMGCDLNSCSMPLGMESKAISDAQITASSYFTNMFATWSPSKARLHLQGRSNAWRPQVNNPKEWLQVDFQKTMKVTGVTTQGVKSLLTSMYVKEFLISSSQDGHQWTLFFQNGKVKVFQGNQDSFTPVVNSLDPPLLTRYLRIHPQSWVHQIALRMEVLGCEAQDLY
T1 sequence (P00451 20-1667 partner limits assumed): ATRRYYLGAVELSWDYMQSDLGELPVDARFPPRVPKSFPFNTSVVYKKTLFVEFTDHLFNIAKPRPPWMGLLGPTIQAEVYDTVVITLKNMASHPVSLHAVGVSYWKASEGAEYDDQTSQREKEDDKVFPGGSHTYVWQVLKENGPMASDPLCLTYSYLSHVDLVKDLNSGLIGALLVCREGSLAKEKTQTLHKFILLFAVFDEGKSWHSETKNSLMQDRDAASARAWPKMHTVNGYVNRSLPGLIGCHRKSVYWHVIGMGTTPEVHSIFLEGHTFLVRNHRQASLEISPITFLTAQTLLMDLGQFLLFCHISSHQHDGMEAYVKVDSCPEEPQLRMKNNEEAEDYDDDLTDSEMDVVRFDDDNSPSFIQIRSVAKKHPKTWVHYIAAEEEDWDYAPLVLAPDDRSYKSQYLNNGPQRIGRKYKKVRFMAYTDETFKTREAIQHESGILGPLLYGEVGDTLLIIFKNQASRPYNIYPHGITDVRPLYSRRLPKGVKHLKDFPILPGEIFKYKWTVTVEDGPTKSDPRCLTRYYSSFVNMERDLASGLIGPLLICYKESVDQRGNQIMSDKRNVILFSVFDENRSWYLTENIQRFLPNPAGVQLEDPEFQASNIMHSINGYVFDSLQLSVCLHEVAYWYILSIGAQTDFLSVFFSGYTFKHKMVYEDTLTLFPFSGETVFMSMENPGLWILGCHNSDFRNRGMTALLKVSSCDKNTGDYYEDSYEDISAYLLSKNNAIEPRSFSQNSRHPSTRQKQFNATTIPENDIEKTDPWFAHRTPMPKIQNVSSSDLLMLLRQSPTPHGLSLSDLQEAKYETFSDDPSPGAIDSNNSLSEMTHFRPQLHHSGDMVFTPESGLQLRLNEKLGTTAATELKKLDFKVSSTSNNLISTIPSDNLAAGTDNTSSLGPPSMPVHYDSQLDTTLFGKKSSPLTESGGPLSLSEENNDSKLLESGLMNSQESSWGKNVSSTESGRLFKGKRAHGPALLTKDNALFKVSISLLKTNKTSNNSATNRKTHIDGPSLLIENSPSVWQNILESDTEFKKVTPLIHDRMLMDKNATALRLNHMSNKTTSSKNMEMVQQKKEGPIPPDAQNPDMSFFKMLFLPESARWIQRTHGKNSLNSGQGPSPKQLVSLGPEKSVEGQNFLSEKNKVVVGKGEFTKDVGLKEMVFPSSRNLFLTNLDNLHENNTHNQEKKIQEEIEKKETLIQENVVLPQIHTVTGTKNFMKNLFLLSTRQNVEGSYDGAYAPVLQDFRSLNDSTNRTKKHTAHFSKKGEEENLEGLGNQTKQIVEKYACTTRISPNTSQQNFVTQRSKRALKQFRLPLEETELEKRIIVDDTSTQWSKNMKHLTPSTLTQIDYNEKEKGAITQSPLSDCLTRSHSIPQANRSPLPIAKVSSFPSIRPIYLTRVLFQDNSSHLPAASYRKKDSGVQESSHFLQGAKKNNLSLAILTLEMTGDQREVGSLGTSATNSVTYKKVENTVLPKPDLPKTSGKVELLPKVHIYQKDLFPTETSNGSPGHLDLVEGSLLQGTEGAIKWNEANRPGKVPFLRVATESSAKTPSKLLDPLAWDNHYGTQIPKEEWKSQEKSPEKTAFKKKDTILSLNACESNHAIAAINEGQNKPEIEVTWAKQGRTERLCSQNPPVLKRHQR

Turning to `N[C@@H](COP(=O)(O)O)C(=O)O` [OPLS, O-Phospho-L-Serine], the dissociation constant Kd at FVIII (fluorescence titration, FIG. 2, read-out: Dissociation constant (Kd) of OPLS binding to FVIII) was found to be 8.4 µM. Further, the “Binding affinity of FVIII for OPLS” value on FVIII (spectroscopic titration) is “highest affinity”. The “Total titers (ELISA), week 11 after re-challenge” value was found to be 895±335 in the data set with anti-GAA total titers (co-administered with 5 mg OPLS) and 1884±761 in the data set on anti-GAA total titers (sequential, 5 mg OPLS 5 min before GAA). In addition, the “Total titers (ELISA), week 6” value in the data set with anti-GAA total titers (co-administered: single combined injection 5 mg OPLS and 1 μg rhGAA) worked out at 787±155; in the data set on anti-GAA total titers (sequential: 5 mg OPLS then 1 μg rhGAA 5 min later, same site), 926±202. Moreover, the “Anti-RXT antibody titers vs RXT alone” value with anti-RXT antibody titers was “lower”. Besides, the “Anti-KLH IgG titer levels vs vehicle” value in the data set with anti-KLH IgG titer is “No statistical significance”. Also, the “Total anti-FVIII titers after rechallenge vs free FVIII” value with anti-FVIII total titers is on record as “significantly lower”.
